Assay [1] addresses T1, BTK (Homo sapiens (Human), UniProt Q06187). The experiment in a line: Btk kinase assay (HTRF). It is filed as biochemical. As to conditions: [ATP]=80 μM, BTK=3.4 nM. In outline:
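HTRF read-out with enzyme, inhibitor, ATP and 1 μM peptide substrate in 50 mM Hepes pH 7.0, 0.02% NaN3, 0.01% BSA, 0.1 mM orthovanadate. Activity measured across compound concentrations against no-inhibitor controls, with no-enzyme wells as baseline.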
Target sequence in this assay (Q06187 whole entry, species assumed): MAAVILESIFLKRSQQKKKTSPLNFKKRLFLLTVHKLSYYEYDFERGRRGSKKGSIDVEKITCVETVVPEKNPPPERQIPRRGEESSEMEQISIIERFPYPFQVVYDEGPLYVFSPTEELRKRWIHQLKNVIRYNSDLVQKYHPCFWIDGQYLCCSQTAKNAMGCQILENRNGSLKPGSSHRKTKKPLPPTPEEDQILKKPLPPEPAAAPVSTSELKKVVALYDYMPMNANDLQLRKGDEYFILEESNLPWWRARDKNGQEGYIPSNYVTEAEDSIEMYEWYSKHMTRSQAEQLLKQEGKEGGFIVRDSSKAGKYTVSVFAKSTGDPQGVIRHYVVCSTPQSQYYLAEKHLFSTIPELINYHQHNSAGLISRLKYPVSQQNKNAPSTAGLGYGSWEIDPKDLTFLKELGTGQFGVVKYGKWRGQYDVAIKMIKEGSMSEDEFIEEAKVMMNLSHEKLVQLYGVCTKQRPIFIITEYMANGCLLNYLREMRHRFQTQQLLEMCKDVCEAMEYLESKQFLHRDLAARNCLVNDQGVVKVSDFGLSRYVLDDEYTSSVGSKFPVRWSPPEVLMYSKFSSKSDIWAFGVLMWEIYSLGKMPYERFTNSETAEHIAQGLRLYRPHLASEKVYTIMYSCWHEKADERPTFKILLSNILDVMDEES
On the technique in general: In TR-FRET formats the signal depends on donor and acceptor labels being close together.

Another assay deals with BLK (Homo sapiens (Human), UniProt P51451). The experiment in a line: BLK kinase assay (HTRF). It is filed as biochemical. To be noted: [ATP]=20 μM, BLK=0.6 nM. The protocol:
(§1) Btk Kinase Assay and Other Kinases Assay Btk kinase activity was determined using a homogenous time resolved fluorescence (HTRF) methodology. Measurements were performed in a reaction volume of 15 μL using 384-well assay plates. Kinase enzyme, inhibitor, ATP and 1 μM peptide substrate were incubated in a reaction buffer compose of Hepes 50 mM (pH7.0), NaN3 0.02%, BSA 0.01%, Orthocanadate 0.1 mM. After one hour, the kinase reaction was quenched by the addition of […] antibody and XL-665 in 1×Detection buffer containing 60 mM EDTA (Cisbio), and the mixture was allowed to incubate for one hour. The HTRF signal was measured on a multimode plate reader (EnVision® Multilabel Reader, Perkin Elmer) with an excitation wavelength (λEx) of 330 nm and detection wavelengths (λEm) of 615 and 665 nm. Activity was determined by the ratio of the fluorescence at 665 nm to that at 615 nm. For each compound, enzyme activity as measured at various concentrations of compound, Negative control reactions were performed in the absence of inhibitor in two replicates and eight no enzyme controls were used to determine baseline fluorescence levels. I[…] were obtained according to the equation: […] For LYN assay, [ATP]=20 μM, LYN=0.12 nM. For LCK assay, [ATP]=20 μM, LCK=0.2 nM. For BLK assay, [ATP]=20 μM, BLK=0.6 nM.

The next assay addresses LYN (Homo sapiens (Human), UniProt P07948). The assay is described as follows: LYN kinase assay (HTRF). It is filed as biochemical. As to conditions: [ATP]=20 μM, LYN=0.12 nM. The protocol:
as §1

In another assay the target is LCK (Homo sapiens (Human), UniProt P06239). The experiment in a line: LCK kinase assay (HTRF). To be noted: [ATP]=20 μM, LCK=0.2 nM. It is filed as biochemical. The protocol:
as §1

A further assay deals with EGFR (Homo sapiens (Human), UniProt P00533). The assay is described as follows: EGFR kinase assay. The class given is biochemical. The protocol: Btk Kinase Assay and Other Kinases Assay Btk kinase activity was determined using a homogenous time resolved fluorescence (HTRF) methodology. Measurements were performed in a reaction volume of 15 μL using 384-well assay plates. Kinase enzyme, inhibitor, ATP and 1 μM peptide substrate were incubated in a reaction buffer compose of Hepes 50 mM (pH7.0), NaN3 0.02%, BSA 0.01%, Orthocanadate 0.1 mM. After one hour, the kinase reaction was quenched by the addition of […] antibody and XL-665 in 1×Detection buffer containing 60 mM EDTA (Cisbio), and the mixture was allowed to incubate for one hour. The HTRF signal was measured on a multimode plate reader (EnVision® Multilabel Reader, Perkin Elmer) with an excitation wavelength (λEx) of 330 nm and detection wavelengths (λEm) of 615 and 665 nm. Activity was determined by the ratio of the fluorescence at 665 nm to that at 615 nm. For each compound, enzyme activity as measured at various concentrations of compound, Negative control reactions were performed in the absence of inhibitor in two replicates and eight no enzyme controls were used to determine baseline fluorescence levels. I[…] were obtained according to the equation: […]
Sequence of EGFR (P00533 25-1210, species assumed): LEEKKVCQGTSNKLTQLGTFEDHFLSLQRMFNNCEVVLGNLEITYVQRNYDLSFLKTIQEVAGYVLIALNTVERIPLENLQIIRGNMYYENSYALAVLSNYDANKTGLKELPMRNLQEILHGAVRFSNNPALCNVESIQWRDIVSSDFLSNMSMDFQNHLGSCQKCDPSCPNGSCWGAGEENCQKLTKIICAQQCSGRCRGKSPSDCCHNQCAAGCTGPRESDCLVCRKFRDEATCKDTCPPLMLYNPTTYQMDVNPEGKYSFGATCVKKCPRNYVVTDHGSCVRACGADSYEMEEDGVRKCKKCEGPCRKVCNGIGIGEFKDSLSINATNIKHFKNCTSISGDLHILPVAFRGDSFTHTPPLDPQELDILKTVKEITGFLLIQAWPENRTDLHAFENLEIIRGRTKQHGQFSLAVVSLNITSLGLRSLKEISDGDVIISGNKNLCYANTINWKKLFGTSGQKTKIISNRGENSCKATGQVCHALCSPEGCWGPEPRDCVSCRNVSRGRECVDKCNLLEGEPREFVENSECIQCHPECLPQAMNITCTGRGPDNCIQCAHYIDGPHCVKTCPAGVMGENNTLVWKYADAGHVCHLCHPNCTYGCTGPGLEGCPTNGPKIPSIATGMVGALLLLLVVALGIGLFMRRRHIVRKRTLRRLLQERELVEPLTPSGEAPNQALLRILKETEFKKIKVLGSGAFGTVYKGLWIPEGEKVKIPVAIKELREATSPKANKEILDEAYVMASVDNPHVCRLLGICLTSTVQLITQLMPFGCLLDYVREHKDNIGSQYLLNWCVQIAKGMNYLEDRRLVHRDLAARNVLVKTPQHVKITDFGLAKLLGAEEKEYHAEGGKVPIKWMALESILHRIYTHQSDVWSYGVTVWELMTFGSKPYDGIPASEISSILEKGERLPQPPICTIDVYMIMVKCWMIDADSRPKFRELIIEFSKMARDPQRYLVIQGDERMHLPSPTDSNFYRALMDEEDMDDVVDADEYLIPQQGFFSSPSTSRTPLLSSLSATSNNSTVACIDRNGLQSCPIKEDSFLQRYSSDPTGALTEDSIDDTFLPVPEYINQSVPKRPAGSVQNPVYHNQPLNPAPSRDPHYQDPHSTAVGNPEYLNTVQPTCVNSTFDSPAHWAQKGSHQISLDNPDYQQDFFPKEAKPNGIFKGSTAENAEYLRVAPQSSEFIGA

The target of assay [2] is T1, BTK. The assay is described as follows: Btk occupancy in cellular assays (PCI-33380 labeling, Jeko-1 cells). It is filed as cell-based. To be noted: 1.5 h pre-incubation with compound, PCI-33380 5 μM 1 h. As to the method: Btk Occupancy in Cellular Assays
For PCI-33380 labeling of human B cells, 10^6 Jeko-1 cells were pre-incubated with compound for 1.5 h before labeling. Then cells were treated with PCI-33380 at 5 μM for 1 h. Washed, lysed in Ripa buffer containing sample reducing agent, and analyzed by SDS/PAGE and fluorescent gel scanning using a Typhoon scanner 9500 (GE Healthcare) (Ex, 532 nm; Em, 555 nm). The gel was then blotted and total Btk levels detected by standard Western blot with Btk antibody (CST).
Target sequence in this assay (Q06187 whole entry): as the sequence (Q06187 whole entry, species assumed) above

For assay [3], the target named is Btk (Mus musculus (Mouse), UniProt P35991). The assay is described as follows: Btk occupancy in vivo (PBMCs or splenocytes, PCI-33380 labeling). To be noted: 10 mg/kg single oral dose, after 4 hours, Babc/L mice. The protocol:
For analysis of Btk occupancy in Babc/L mice following oral dosing of compounds after 4 hours. Isolating peripheral blood mononuclear cells (PBMCs) with mouse peripheral blood separation kit (Hao Yang Biological Manufacture CO., LTD, Tianjin) were collected from Babc/L mice (1 ml blood from two mice). Spleens were processed to splenocytes followed by 5 min incubation in red blood cell lysing buffer (from mouse peripheral blood separation kit). PBMCs or splenocytes were then PCI-33380-labeled and lysates analyzed by fluorescent gel scanning as described in cellular assays.

SMILES strings stand for the structures. pIC50: −log10 of the molar value. Read-outs that look alike come from different tables or passages of the source. Where only a bound is given, the exact number is not on record here.

Sequence of LCK (P06239 whole entry, species assumed): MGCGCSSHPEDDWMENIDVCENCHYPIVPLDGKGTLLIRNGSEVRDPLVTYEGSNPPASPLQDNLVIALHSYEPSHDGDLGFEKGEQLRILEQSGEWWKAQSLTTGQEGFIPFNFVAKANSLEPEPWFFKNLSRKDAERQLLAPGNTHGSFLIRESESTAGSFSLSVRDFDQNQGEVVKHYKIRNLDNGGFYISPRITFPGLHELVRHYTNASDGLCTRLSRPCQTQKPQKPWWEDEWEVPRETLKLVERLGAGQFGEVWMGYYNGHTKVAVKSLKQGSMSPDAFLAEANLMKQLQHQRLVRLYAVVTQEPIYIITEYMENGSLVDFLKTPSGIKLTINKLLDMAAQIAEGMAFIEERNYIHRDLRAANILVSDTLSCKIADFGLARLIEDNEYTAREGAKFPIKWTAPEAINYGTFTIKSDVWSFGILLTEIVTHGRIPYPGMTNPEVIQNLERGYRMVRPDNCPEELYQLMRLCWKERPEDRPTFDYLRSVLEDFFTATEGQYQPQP
Sequence of LYN (P07948 whole entry, species assumed): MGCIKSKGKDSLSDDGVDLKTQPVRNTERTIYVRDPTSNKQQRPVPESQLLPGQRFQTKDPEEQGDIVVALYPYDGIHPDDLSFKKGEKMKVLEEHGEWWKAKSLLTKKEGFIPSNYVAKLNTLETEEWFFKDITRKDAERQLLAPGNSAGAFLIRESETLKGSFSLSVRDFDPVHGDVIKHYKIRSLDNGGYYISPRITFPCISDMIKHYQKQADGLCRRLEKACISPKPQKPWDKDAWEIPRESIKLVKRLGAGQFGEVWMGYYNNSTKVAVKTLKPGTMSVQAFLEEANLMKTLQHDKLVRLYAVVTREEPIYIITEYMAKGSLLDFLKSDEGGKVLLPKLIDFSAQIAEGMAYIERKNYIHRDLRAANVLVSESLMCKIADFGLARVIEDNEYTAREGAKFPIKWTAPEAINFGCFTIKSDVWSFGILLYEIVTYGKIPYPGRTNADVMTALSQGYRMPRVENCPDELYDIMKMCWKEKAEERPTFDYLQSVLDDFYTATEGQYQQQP
Sequence of BLK (P51451 whole entry, species assumed): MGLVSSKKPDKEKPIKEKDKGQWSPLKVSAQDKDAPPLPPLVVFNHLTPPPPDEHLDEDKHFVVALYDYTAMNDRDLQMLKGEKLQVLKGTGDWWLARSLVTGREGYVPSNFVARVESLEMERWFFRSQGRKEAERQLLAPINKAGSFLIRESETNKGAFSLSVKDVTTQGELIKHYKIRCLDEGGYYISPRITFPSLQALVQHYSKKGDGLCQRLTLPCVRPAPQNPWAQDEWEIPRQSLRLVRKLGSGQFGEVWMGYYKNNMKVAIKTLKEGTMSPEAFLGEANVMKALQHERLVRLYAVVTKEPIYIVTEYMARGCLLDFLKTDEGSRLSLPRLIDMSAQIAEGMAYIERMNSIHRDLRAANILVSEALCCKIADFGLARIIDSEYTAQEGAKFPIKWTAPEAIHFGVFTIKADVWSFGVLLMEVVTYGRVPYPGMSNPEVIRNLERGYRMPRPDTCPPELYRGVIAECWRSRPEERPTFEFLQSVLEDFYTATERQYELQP
Sequence of Btk (P35991 whole entry): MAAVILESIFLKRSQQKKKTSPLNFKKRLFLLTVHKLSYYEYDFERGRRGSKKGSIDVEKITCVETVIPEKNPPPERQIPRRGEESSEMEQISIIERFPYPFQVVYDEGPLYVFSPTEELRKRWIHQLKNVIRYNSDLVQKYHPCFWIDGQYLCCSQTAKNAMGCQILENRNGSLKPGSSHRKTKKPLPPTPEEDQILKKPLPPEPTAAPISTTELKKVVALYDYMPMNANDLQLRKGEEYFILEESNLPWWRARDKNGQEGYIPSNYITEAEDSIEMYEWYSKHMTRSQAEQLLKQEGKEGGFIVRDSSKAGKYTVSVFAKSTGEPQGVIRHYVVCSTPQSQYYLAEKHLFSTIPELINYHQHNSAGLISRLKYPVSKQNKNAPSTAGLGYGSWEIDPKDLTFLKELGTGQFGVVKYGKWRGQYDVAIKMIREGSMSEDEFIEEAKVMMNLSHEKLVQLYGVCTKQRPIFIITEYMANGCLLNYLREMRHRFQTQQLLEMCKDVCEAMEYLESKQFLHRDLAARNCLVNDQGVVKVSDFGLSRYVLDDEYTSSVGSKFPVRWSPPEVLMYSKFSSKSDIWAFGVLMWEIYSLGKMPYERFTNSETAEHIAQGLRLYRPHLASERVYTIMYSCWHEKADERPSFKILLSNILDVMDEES

In the case of `C=CC(=O)N1CCC[C@@H](n2nc(-c3ccc(Oc4cccc(OC)c4F)cc3)c3cncc(OC)c32)C1` [Compound 6, (R)-1-(3-(3-(4-(2-fluoro-3-methoxyphenoxy)phenyl)-7-methoxy-1H-pyrazolo[4,3-c]pyridin-1-yl)piperidin-1-yl)prop-2-en-1-one], the pIC50 at BTK [1] (read-out: BTK IC50) was over 8.00; at BTK [1] (read-out: BTK Inhibition) it was over 8.00; against BLK, 7.00 to 8.00; against LYN it was 5.00 to 6.00; against LCK it was 5.00 to 6.00; against EGFR, 6.00 to 7.00.
Regarding `C=CC(=O)N1CC[C@@H](n2nc(-c3ccc(Oc4cccc(OC)c4F)cc3)c3cnccc32)C1` [Compound 3, (R)-1-(3-(3-(4-(2-fluoro-3-methoxyphenoxy)phenyl)-1H-pyrazolo[4,3-c]pyridin-1-yl)pyrrolidin-1-yl)prop-2-en-1-one], at BTK [1] (read-out: BTK Inhibition), the pIC50 is over 8.00. The “concentration sufficient to fully occupy the active site of Btk” value on BTK [2] worked out at 50 nM. For the same compound, at Btk [3], the “Btk occupancy in vivo” value is “full occupancy”.
In the case of `C=CC(=O)N1CC[C@@H](n2nc(-c3ccc(Oc4ccccc4)cc3)c3cnccc32)C1` [Compound 1, (R)-1-(3-(3-(4-phenoxyphenyl)-1H-pyrazolo[4,3-c]pyridin-1-yl)pyrrolidin-1-yl)prop-2-en-1-one], the pIC50 was over 8.00 on BTK [1] (read-out: BTK IC50); over 8.00 on BTK [1] (read-out: BTK Inhibition); over 8.00 at BLK; at least 5.00 against LYN; 5.00 to 6.00 at LCK; 6.00 to 7.00 on EGFR.
